Tested on: Pseudomonas aeruginosa PAM1001
Assay: checkerboard assay (broth microdilution): levofloxacin MIC in presence of efflux pump inhibitor
Format: cell-based
How it was run: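 Checkerboard broth microdilution in Mueller Hinton Broth against P. aeruginosa PAM1001 (5×10^5 CFU/mL, early-log inoculum), levofloxacin and efflux pump inhibitor (up to 40 μg/mL) diluted along crossing axes. Plates incubated 20 h at 35° C; growth read at 650 nm and visually. Potentiation scored as reduced levofloxacin MIC.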

| SMILES | Levofloxacin MIC Against P. aerugiuosa PAM1001 in Presence of Efflux Pump Inhibitor (EPI), Minimum Inhibitory Concentration (EPI Conc. 0 μg/mL) | Levofloxacin MIC Against P. aerugiuosa PAM1001 in Presence of Efflux Pump Inhibitor (EPI), Minimum Inhibitory Concentration (EPI Conc. 0.625 μg/mL) | Levofloxacin MIC Against P. aerugiuosa PAM1001 in Presence of Efflux Pump Inhibitor (EPI), Minimum Inhibitory Concentration (EPI Conc. 1.25 μg/mL) | Levofloxacin MIC Against P. aerugiuosa PAM1001 in Presence of Efflux Pump Inhibitor (EPI), Minimum Inhibitory Concentration (EPI Conc. 2.5 μg/mL) | Levofloxacin MIC Against P. aerugiuosa PAM1001 in Presence of Efflux Pump Inhibitor (EPI), Minimum Inhibitory Concentration (EPI Conc. 5 μg/ mL) | Levofloxacin MIC Against P. aerugiuosa PAM1001 in Presence of Efflux Pump Inhibitor (EPI), Minimum Inhibitory Concentration (EPI Conc. 10 μg/mL) | Levofloxacin MIC Against P. aerugiuosa PAM1001 in Presence of Efflux Pump Inhibitor (EPI), Minimum Inhibitory Concentration (EPI Conc. 20 μg/mL) | Levofloxacin MIC Against P. aerugiuosa PAM1001 in Presence of Efflux Pump Inhibitor (EPI), Minimum Inhibitory Concentration (EPI Conc. 40 μg/mL) |
| --- | --- | --- | --- | --- | --- | --- | --- | --- |
| CC(C)C[C@H](COc1ccc2ccccc2c1)NC(=O)[C@H]1C[C@H](NC(=O)CN)CN1 [Compound M49, (2R,4S)-4-(2-Aminoacetamideo)-N-[(1R)-3-methyl-1-[(2-naphthyloxy)methyl]butyl]-2-pyrrolidinecarboxamide] | 4 µg/mL | 4 µg/mL | 4 µg/mL | 4 µg/mL | 4 µg/mL | 1 µg/mL | 0.125 µg/mL | 0.06 µg/mL |
| NCC(=O)N[C@H]1CN[C@H](C(=O)N[C@H](CCc2ccccc2)CSc2cnc3ccccc3c2)C1 [Compound M53, (2S,4R)-4-(2-Aminoacetamideo)-N-[(1R)-3-phenyl-1-[(3-quinolythio)methyl]propyl]-2-pyrrolidinecarboxamide] | 4 µg/mL | 4 µg/mL | 4 µg/mL | 4 µg/mL | 4 µg/mL | 4 µg/mL | 0.06 µg/mL | 0.03 µg/mL |
| NCC(=O)N[C@H]1CN[C@H](C(=O)N[C@H](CCc2ccccc2)COc2ccc3ccccc3n2)C1 [Compound M54, (2S,rR)-4-(2-Aminoacetamido)-N-[(1R)-3-phenyl-1-[(2-quinolyloxy)methyl]propyl]-2-pyrrolidinecarboxamide] | 4 µg/mL | 4 µg/mL | 4 µg/mL | 4 µg/mL | 4 µg/mL | 0.125 µg/mL | 0.06 µg/mL | 0.03 µg/mL |
| NCC(=O)N[C@H]1CN[C@H](C(=O)N[C@H](CCc2ccccc2)CSc2ccc3ccccc3n2)C1 [Compound M55, (2S,4R)-4-(2-Aminoacetamido)-N-[(1R)-3-phenyl-1-[(2-quinolythio)methyl]propyl]-2-pyrrolidinecarobxamide] | 4 µg/mL | 4 µg/mL | 4 µg/mL | 4 µg/mL | 4 µg/mL | 2 µg/mL | 1 µg/mL | 0.06 µg/mL |
| CC(C)C[C@H](COc1cnc2ccccc2c1)NC(=O)[C@H]1C[C@H](CN)CN1 [Compound M59, (2R,4R)-4-(Aminomethyl)-N-[(1R)-3-methyl-1-[(3-quiolyloxy)methyl]butyl]-2-pyrrolidinecarboxamide] | 4 µg/mL | 4 µg/mL | 4 µg/mL | 4 µg/mL | 4 µg/mL | 1 µg/mL | 0.5 µg/mL | 0.125 µg/mL |
| Cc1ccc2ncc(C(=O)N[C@@H](CCc3ccccc3)CNC(=O)[C@H]3C[C@H](CN)CN3)cc2c1 [Compound M62, (2R,4R)-4-(Aminomethyl)-N-[(2S)-2-(6-methyl-3-quinolylcarboxamido)-4-phenylbutyl]-2-pyrrolidinecaroxamide] | 4 µg/mL | 4 µg/mL | 4 µg/mL | 4 µg/mL | 4 µg/mL | 2 µg/mL | 0.5 µg/mL | 0.015 µg/mL |
| Cc1ccc2ncc(C(=O)NC[C@@H](CCc3ccccc3)NC(=O)[C@H]3C[C@H](CN)CN3)cc2c1 [Compound M63, (2R,4R)-4-(Aminomethyl)-N-[(1R)-3-phenyl-1-[(6-methyl-3-quinolylcarboxamido)methyl]propyl]-2-pyrrolidinecaroxamide] | 4 µg/mL | 4 µg/mL | 4 µg/mL | 4 µg/mL | 2 µg/mL | 1 µg/mL | 0.008 µg/mL | 0.015 µg/mL |
| Cc1cc2nc(C(O)[C@@H](CCc3ccccc3)NC(=O)[C@@H]3C[C@@H](NC(=O)CN)CN3)oc2cc1C (some centres unmarked) [Compound M67] | 4 µg/mL | 4 µg/mL | 4 µg/mL | 4 µg/mL | 4 µg/mL | 0.5 µg/mL | 0.03 µg/mL |  |
| NC[C@@H]1CN[C@@H](CO[C@@H](CCc2ccccc2)C(=O)Nc2cnc3ccccc3c2)C1 [Compound M69, (2R,4R)-4-(Aminomethyl)-2-[((1S)-3-phenyl-1-(3-quiolylcarbamoyl)propyl)oxymethyl]pyrrolidine] | 4 µg/mL | 4 µg/mL | 2 µg/mL | 2 µg/mL | 0.125 µg/mL | 0.125 µg/mL | 0.125 µg/mL | 0.06 µg/mL |

Source: patent US6399629B1, “Efflux pump inhibitors” (priority 1998, dated 2002)
